The source of these data is patent US20250340554A1, “5-Amino-1H-Pyrrolo[3,2-b]Pyridine-2-Carboxamide Derivatives as MTA-Cooperative Inhibitors of PRMT5” (BeOne Medicines I GmbH, priority 2023, published 2025).

Bounds are passed on as bounds.

Experiment [1] has as its system HCT116-MTAP-KO. As to the kind of experiment: Compounds cell killing in HCT116 isogenic pair (Cell Titer-Glo viability), MTAP-KO cells. It counts as cell-based. The following applies: Homo sapiens, HCT-116, 144 h, 6 days, 0-10 μM compound, * = more than 50% viability inhibition at tested concentration without a full curve. An excerpt: (§1) HCT116 cell line was obtained from ATCC (CCL-247). It has a mutation in codon 13 of the ras proto-oncogene and can be used as a positive control for PCR assays of mutation in this codon. HCT116-MTAP-KO was knocked-out-MTAP-gene based HCT116, and one single clone was passed for this assay. HCT116-mock-RNA-KO was knocked-out-mock-gene based HCT116 with MTAP wildtype genotype. The base medium for HCT116 isogenic pair is RPMI 1640, HEPES (Gibco, 22400105). To make the complete growth medium, add the following components to the base medium: fetal bovine serum to a final concentration of 10% (Gibco, 10099-141C). The cell line was grown in a humidified 5% CO2 atmosphere at 37° C. and regularly tested for the presence of mycoplasma with MycoAlert™ PLUS Mycoplasma Detection Kit (Lonza, LT07-710).
(§2) • Seed HCT116-mock-RNA-KO (400/well) or HCT116-MTAP-KO (400/well) cells into a 96-well plate (Greiner: 655090), 100 μL/well. • Incubate at 37° C., 5% CO2, overnight. • Add 50 μL fresh growth-medium containing serial dilution of compounds for a final compound concentration of 0-10 μM to each well. • Incubate at 37° C., 5% CO2, 6 days. • The cell viability detected by Cell Titer-Glo (Promega, G7573). Add 70 μL of CellTiter-Glo® reagent in each well. • Incubate at room temperature for 10 minutes to stabilize luminescent signal. • Analyze with Microplate Reader (TECAN, SPARK) and fit IC50 using Prism® 9.
For orientation: Cellular ATP, detected with luciferase, serves as a proxy for viable cell number.

Experiment [2] deals with HCT116-mock-RNA-KO. As to the kind of experiment: Compounds cell killing in HCT116 isogenic pair (Cell Titer-Glo viability), mock-RNA-KO cells (MTAP wildtype). It counts as cell-based. To be noted: Homo sapiens, HCT-116, 144 h, 6 days, 0-10 μM compound.
Source text: as §1, §2

On to `Cc1cc2[nH]c(C(=O)N(Cc3ccc(-c4c(F)cccc4F)cn3)[C@@H]3CCCc4c(C5CC5)ccnc43)cc2nc1N` (stereo in doubt) [Example A6, 5-amino-N-(4-cyclopropyl-5,6,7,8-tetrahydroquinolin-8-yl)-N-((5-(2,6-difluorophenyl)pyridin-2-yl)methyl)-6-methyl-1H-pyrrolo[3,2-b]pyridine-2-carboxamide], for which the IC50 (in general, the concentration that gives 50% inhibition) in experiment [1] is less than 4.6 nM; in experiment [2] it was 1490 nM.

`Cc1cc2[nH]c(C(=O)N(Cc3ccc(-c4c(F)cccc4F)cn3)[C@@H]3CCCc4cccnc43)cc2nc1N` [Example A1, (R)-5-amino-N-((5-(2,6-difluorophenyl)pyridin-2-yl)methyl)-6-methyl-N-(5,6,7,8-tetrahydroquinolin-8-yl)-1H-pyrrolo[3,2-b]pyridine-2-carboxamide]: the IC50 was less than 0.5 nM in experiment [1] and 155 nM in experiment [2].

Turning to `Cc1cc2[nH]c(C(=O)N(Cc3ccc(-c4ccccc4)cn3)[C@@H]3CCCc4cccnc43)cc2nc1N` [Example A2, (R)-5-amino-6-methyl-N-((5-phenylpyridin-2-yl)methyl)-N-(5,6,7,8-tetrahydroquinolin-8-yl)-1H-pyrrolo[3,2-b]pyridine-2-carboxamide], the IC50 in experiment [1] is less than 0.5 nM; in experiment [2], 486 nM.

In the case of `Cc1cc2[nH]c(C(=O)N(Cc3ccc(-c4c(F)cncc4F)cn3)[C@@H]3CCCc4cccnc43)cc2nc1N` [Example A3, (R)-5-amino-N-((3′,5′-difluoro-[3,4′-bipyridin]-6-yl)methyl)-6-methyl-N-(5,6,7,8-tetrahydroquinolin-8-yl)-1H-pyrrolo[3,2-b]pyridine-2-carboxamide], the IC50 in experiment [1] came to 0.008 nM; in experiment [2] it was 49 nM.

On to `Cc1cc2[nH]c(C(=O)N(Cc3ccc(-c4c(C)cnn4C)cn3)[C@@H]3CCCc4cccnc43)cc2nc1N` [Example A4, (R)-5-amino-N-((5-(1,4-dimethyl-1H-pyrazol-5-yl)pyridin-2-yl)methyl)-6-methyl-N-(5,6,7,8-tetrahydroquinolin-8-yl)-1H-pyrrolo[3,2-b]pyridine-2-carboxamide], for which the IC50 came out at 30 nM in experiment [1] and 2360 nM in experiment [2].

Regarding `Cc1cc2[nH]c(C(=O)N(Cc3ccc(-c4c(F)cccc4F)cn3)[C@@H]3CCCc4cccnc43)c(Br)c2nc1N` [Example A5, (R)-5-amino-3-bromo-N-((5-(2,6-difluorophenyl)pyridin-2-yl)methyl)-6-methyl-N-(5,6,7,8-tetrahydroquinolin-8-yl)-1H-pyrrolo[3,2-b]pyridine-2-carboxamide], the IC50 is 167 nM in experiment [1] and 3340 nM in experiment [2].

As to `Cc1cc2[nH]c(C(=O)N(Cc3ccc(-c4c(F)cccc4F)cn3)C3CCCc4c(C(C)(C)O)ccnc43)cc2nc1N` (stereo not shown) [Example A7, 5-amino-N-((5-(2,6-difluorophenyl)pyridin-2-yl)methyl)-N-(4-(2-hydroxypropan-2-yl)-5,6,7,8-tetrahydroquinolin-8-yl)-6-methyl-1H-pyrrolo[3,2-b]pyridine-2-carboxamide], the results for the IC50 in experiment [1] and in experiment [2] were less than 4.6 nM and 339 nM, respectively.

With `Cc1cc2[nH]c(C(=O)N(Cc3cc(Cl)c(-c4ccccc4)cn3)[C@@H]3CCCc4cccnc43)cc2nc1N` [Example A8, (R)-5-amino-N-((4-chloro-5-phenylpyridin-2-yl)methyl)-6-methyl-N-(5,6,7,8-tetrahydroquinolin-8-yl)-1H-pyrrolo[3,2-b]pyridine-2-carboxamide], the IC50 in experiment [1] was less than 4.6 nM; in experiment [2] it was 2040 nM.

On to `Cc1cc2[nH]c(C(=O)N(Cc3ccc(-c4cn[nH]c4)c(C)n3)C3CCCc4cccnc43)cc2nc1N` (stereo not shown) [Example A9, 5-amino-6-methyl-N-((6-methyl-5-(1H-pyrazol-4-yl)pyridin-2-yl)methyl)-N-(5,6,7,8-tetrahydroquinolin-8-yl)-1H-pyrrolo[3,2-b]pyridine-2-carboxamide], for which the IC50 amounted to 86 nM in experiment [1] and 4180 nM in experiment [2].

`Cc1cc2[nH]c(C(=O)N(Cc3ccc(-c4c(Cl)cccc4Cl)cn3)C3CCCc4cccnc43)cc2nc1N` (stereo not shown) [Example A10, 5-amino-N-((5-(2,6-dichlorophenyl)pyridin-2-yl)methyl)-6-methyl-N-(5,6,7,8-tetrahydroquinolin-8-yl)-1H-pyrrolo[3,2-b]pyridine-2-carboxamide]: the IC50 in experiment [1] stood at 217 nM; in experiment [2], 3480 nM.

For `Cc1cc2[nH]c(C(=O)N(Cc3ccc(-c4c(F)c(F)c(F)c(F)c4F)cn3)[C@@H]3CCCc4cccnc43)cc2nc1N` [Example A11, (R)-5-amino-6-methyl-N-((5-(perfluorophenyl)pyridin-2-yl)methyl)-N-(5,6,7,8-tetrahydroquinolin-8-yl)-1H-pyrrolo[3,2-b]pyridine-2-carboxamide], the IC50 in experiment [1] was less than 4.6 nM; in experiment [2], 1470 nM.

Take `Nc1nc2cc(C(=O)N(Cc3ccc(-c4c(F)cccc4F)cn3)[C@@H]3CCCc4cccnc43)[nH]c2cc1Br` [Example A12, (R)-5-amino-6-bromo-N-((5-(2,6-difluorophenyl)pyridin-2-yl)methyl)-N-(5,6,7,8-tetrahydroquinolin-8-yl)-1H-pyrrolo[3,2-b]pyridine-2-carboxamide]: the values for the IC50 in experiment [1] and in experiment [2] were less than 4.6 nM and 661 nM, respectively.

For the compound `Cc1cc2[nH]c(C(=O)N(Cc3ccc(-c4ncnn4C)cn3)[C@@H]3CCCc4cccnc43)cc2nc1N` [Example A13, (R)-5-amino-6-methyl-N-((5-(1-methyl-1H-1,2,4-triazol-5-yl)pyridin-2-yl)methyl)-N-(5,6,7,8-tetrahydroquinolin-8-yl)-1H-pyrrolo[3,2-b]pyridine-2-carboxamide], the IC50 in experiment [1] was 83 nM; in experiment [2], greater than 10000 nM.

Regarding `Cc1cc2[nH]c(C(=O)N(Cc3ccc(-c4c(F)cccc4Cl)cn3)C3CCCc4cccnc43)cc2nc1N` (stereo not shown) [Example A14, 5-amino-N-((5-(2-chloro-6-fluorophenyl)pyridin-2-yl)methyl)-6-methyl-N-(5,6,7,8-tetrahydroquinolin-8-yl)-1H-pyrrolo[3,2-b]pyridine-2-carboxamide], the IC50 in experiment [1] worked out at 2.9 nM; in experiment [2] it was 1120 nM.

Consider `Cc1cc2[nH]c(C(=O)N(Cc3ccc(-c4c(F)cccc4C#N)cn3)C3CCCc4cccnc43)cc2nc1N` (stereo not shown) [Example A15, 5-amino-N-((5-(2-cyano-6-fluorophenyl)pyridin-2-yl)methyl)-6-methyl-N-(5,6,7,8-tetrahydroquinolin-8-yl)-1H-pyrrolo[3,2-b]pyridine-2-carboxamide], for which the IC50 is 4.3 nM in experiment [1] and 424 nM in experiment [2].

`Cc1cc2[nH]c(C(=O)N(Cc3ccc(-c4ccccn4)cn3)C3CCCc4cccnc43)cc2nc1N` (stereo not shown) [Example A16, N-([2,3′-bipyridin]-6′-ylmethyl)-5-amino-6-methyl-N-(5,6,7,8-tetrahydroquinolin-8-yl)-1H-pyrrolo[3,2-b]pyridine-2-carboxamide]: the IC50 in experiment [1] was found to be 17 nM; in experiment [2], 1640 nM.

Consider `Cc1cc2[nH]c(C(=O)N(Cc3ccc(-c4c(F)cccc4F)cn3)[C@@H]3CCCc4cccnc43)c(F)c2nc1N` [Example A17, (R)-5-amino-N-((5-(2,6-difluorophenyl)pyridin-2-yl)methyl)-3-fluoro-6-methyl-N-(5,6,7,8-tetrahydroquinolin-8-yl)-1H-pyrrolo[3,2-b]pyridine-2-carboxamide], for which the IC50 in experiment [1] worked out at 66 nM; in experiment [2], 2840 nM.
